# Results as given in US20190358264A1, “METHODS OF TREATING DISEASES ASSOCIATED WITH ILC2 CELLS” (Limm Therapeutics, SA, priority 2016, published 2019).
# System: Nippostrongylus brasiliensis
# Experiment: NmU23 treatment of N. brasiliensis infected mice
# Type: in vivo, mouse
# Experimental: FIGS. 12a-12f: (FIGS. 12a-12c) Mice were infected with N. brasiliensis larvae and treated with NmU23 peptide (8 g/day) or PBS (control). Lungs were analysed at day 2 post-infection. FIG. 12a, ILC2 response in lungs from NmU23 treated mice (n=5) compared to control (n=5). FIG. 12b, Burden of infection in lungs of infected mice treated with PBS (n=5) or NmU23 (n=5). FIG. 12c, Pulmonary hemorrhage in lung of infected mice treated with NmU23 compared to control. (FIGS. 12d-12f) Mice were infected with N. brasiliensis larvae and treated with NmU23 peptide (8 g/day) or PBS (control). Lungs and small intestine were analysed at day 6 post-infection. FIG. 12d, Neutrophils and eosinophils infiltrate in broncho-alveolar lavage (BAL) in infected mice treated with NmU23 versus PBS. Control n=5; NmU23 n=5. FIG. 12e, Mastocytes and Macrophages infiltrate in broncho-alveolar lavage (BAL) in infected mice treated with NmU23 versus PBS. Control n=5; NmU23 n=5. FIG. 12f, Burden of infection in small intestine of infected mice treated with PBS (n=5) or NmU23 (n=5). Error bars show s.e.m. *P<0.05; **P<0.01; ***P<0.001; ****P<0.0001; ns not significant.
# For in vitro experiments, purified lung and small intestine lamina propria ILC2s were FBS starved for 2 hours prior to stimulation and cultured in complete RPMI (supplemented with 10% foetal bovine serum (FBS), 1% hepes, sodium pyruvate, glutamine, streptomycin and penicillin) at 37° C. For mRNA analysis, ILC2s were stimulated overnight with recombinant mouse Neuromedin U 23 peptide (NmU23, 100 ng/mL; Phoenix pharmaceuticals). Both NmU23-stimulated and control ILC2s were cultured in the presence of IL-2 and IL-7 (10 ng/mL; Peprotech). ILC2s were lysed using RLT buffer (Qiagen). For cytokine protein analysis, ILC2s were incubated exclusively with brefeldin A (eBioscience) for 12 hours prior to intracellular staining. For in vivo experiments, B6 mice were injected intraperitoneal with NmU23 peptide (2 g/day) during Nippostrongylus brasiliensis infection or with a single dose of NmU23 (20 μg) and analyzed after 8 hours. Control mice were treated with PBS alone.
# Nippostrongylus brasiliensis was maintained by monthly passages in Lewis rats as previously described^34. Infective (iL3) worms were kindly provided by Nicola Harris (Lausanne, Switzerland). iL3 larvae were treated for 15 minutes with penicillin/streptomycin (300 U/mL; Thermo Fisher Scientific), gentamicin (1.5 mg/mL; Sigma) and tetracyclin (30 μg/mL; Sigma), washed with PBS and counted under a stereomicroscope. Mice were injected subcutaneously with 500 iL3 in 200 μL of sterile PBS using a 21 G needle. Mice were sacrificed at day 2 post-infection and lungs were collected and analysed.
# Lung parasite burden was quantified in finely minced lungs and as previously described^34. Lung were placed on sterile cheesecloth and suspended in a 50 mL tube containing PBS at 37° C. for at least 4 hours. Viable worms that migrate out into the bottom of the tube were counted under a stereomicroscope (steREO Lumar V12; Zeiss).
# Mice were sacrificed by cervical dislocation, and caudal lobe of the right lung was harvested, fixed in 10% neutral buffered formalin and processed for paraffin embedding. […] Slides were analyzed by a pathologist blinded to experimental groups and images were acquired in a Leica DM2500 microscope, coupled with a Leica MC 170 HD microscope camera. […]
substance,measurement,setting,value
"recombinant mouse Neuromedin U 23 peptide (FKAEYQSPSVGQSKGYFLFRPRN; listed as Mus musculus) [NmU23, NMUR1 agonist neuropeptide, Phoenix pharmaceuticals]",lung haemorrhage in N. brasiliensis infected mice,"NmU23 8 g/day vs PBS, day 2 post-infection",reduced lung haemorrhage
same,"ILC2-derived IL-5, IL-13 and Amphiregulin in lungs of N. brasiliensis infected mice","NmU23 8 g/day vs PBS, day 2 post-infection (FIG. 12a)","increased ILC2-derived IL-5, IL-13 and Amphiregulin"
same,lung parasite burden in N. brasiliensis infected mice,"NmU23 8 g/day vs PBS, day 2 post-infection (FIG. 12b)",decreased
same,intestinal parasite burden in N. brasiliensis infected mice,"NmU23 8 g/day vs PBS, small intestine, day 6 post-infection (FIG. 12f)",decreased
same,eosinophil infiltrates in the lung of N. brasiliensis infected mice,"NmU23 intraperitoneal 2 g/day vs PBS, lungs at 48 hours",increased eosinophil infiltrates
